PMC4685510, “A Cell Biologist’s Field Guide to Aurora Kinase Inhibitors” (Frontiers in Oncology, 2015)
Read-outs that look alike come from different tables or passages of the source.

Columns and labels:
Assay in all cases: biochemical
Format in all cases: biochemical
[1] = target: 363 human kinases (including Aurora A/B/C) (Homo sapiens, UniProt O75676); conditions: MSK2/RPS6KA4; for remaining activity at 0.1 µM: 100 nM; for remaining activity at 0.1 µM / remaining activity at 0.5 µM: read-out: % Enzyme Activity (relative to DMSO controls)
363 human kinases (including Aurora A/B/C) (Homo sapiens, UniProt O75676), sequence (O75676 whole entry): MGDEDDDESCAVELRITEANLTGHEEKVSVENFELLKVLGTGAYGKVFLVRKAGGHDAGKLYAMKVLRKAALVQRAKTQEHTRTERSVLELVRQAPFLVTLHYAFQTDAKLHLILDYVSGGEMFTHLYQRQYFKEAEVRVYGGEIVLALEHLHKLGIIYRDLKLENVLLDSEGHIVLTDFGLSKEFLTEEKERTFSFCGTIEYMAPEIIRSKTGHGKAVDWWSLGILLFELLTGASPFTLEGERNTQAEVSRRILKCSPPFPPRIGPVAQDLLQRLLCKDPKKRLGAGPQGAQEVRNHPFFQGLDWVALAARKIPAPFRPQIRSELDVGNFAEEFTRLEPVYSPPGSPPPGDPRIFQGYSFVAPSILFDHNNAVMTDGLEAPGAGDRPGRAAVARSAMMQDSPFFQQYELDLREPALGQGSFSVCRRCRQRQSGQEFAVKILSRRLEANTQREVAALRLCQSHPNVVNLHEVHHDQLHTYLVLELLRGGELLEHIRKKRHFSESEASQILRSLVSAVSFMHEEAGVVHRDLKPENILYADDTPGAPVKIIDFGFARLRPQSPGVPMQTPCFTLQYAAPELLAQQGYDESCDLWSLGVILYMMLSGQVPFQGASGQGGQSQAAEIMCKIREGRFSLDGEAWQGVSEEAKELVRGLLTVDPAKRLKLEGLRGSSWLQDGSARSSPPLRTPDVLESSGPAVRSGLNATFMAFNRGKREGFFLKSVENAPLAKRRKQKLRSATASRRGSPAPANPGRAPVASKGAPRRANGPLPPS
From the text: (§1) However, the Aurora A/B selectivity ratios derived from our in vitro and in vivo data can be compared to prioritize inhibitors.

[2] = target: 363 human kinases (including Aurora A/B/C) (Homo sapiens, UniProt Q00526); conditions: CDK3/cyclin E, [ATP] 30 µM; for remaining activity at 0.1 µM: 100 nM; for remaining activity at 0.1 µM / remaining activity at 0.5 µM: read-out: % Enzyme Activity (relative to DMSO controls)
363 human kinases (including Aurora A/B/C) (Homo sapiens, UniProt Q00526), sequence (Q00526 whole entry): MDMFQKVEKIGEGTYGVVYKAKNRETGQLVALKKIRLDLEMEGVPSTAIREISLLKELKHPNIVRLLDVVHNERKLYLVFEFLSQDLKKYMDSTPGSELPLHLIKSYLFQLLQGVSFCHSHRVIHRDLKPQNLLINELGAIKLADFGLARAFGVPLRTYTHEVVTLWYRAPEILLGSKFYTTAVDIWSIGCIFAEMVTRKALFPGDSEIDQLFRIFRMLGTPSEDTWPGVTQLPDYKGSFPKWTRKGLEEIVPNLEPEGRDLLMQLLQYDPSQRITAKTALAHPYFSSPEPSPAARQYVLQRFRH
From the text: as §1

[3] = target: 363 human kinases (including Aurora A/B/C) (Homo sapiens, UniProt P49137); conditions: MAPKAPK2; for remaining activity at 0.1 µM: 100 nM; for remaining activity at 0.1 µM / remaining activity at 0.5 µM: read-out: % Enzyme Activity (relative to DMSO controls)
363 human kinases (including Aurora A/B/C) (Homo sapiens, UniProt P49137), sequence (P49137 whole entry): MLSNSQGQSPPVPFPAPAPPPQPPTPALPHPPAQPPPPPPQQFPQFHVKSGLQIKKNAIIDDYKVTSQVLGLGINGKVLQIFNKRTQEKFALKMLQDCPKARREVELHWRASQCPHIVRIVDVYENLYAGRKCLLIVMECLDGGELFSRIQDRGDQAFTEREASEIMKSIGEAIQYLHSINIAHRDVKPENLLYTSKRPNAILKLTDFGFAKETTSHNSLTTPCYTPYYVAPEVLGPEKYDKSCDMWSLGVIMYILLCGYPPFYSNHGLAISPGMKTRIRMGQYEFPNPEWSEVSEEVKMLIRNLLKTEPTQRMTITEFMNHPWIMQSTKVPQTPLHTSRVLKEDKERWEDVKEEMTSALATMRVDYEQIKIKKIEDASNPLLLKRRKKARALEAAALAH
From the text: as §1

[4] = target: T1, 363 human kinases (including Aurora A/B/C) (Homo sapiens, UniProt P41743); conditions: PKCiota; for remaining activity at 0.1 µM: 100 nM; for remaining activity at 0.1 µM / remaining activity at 0.5 µM: read-out: % Enzyme Activity (relative to DMSO controls)
T1 sequence (P41743 1-596): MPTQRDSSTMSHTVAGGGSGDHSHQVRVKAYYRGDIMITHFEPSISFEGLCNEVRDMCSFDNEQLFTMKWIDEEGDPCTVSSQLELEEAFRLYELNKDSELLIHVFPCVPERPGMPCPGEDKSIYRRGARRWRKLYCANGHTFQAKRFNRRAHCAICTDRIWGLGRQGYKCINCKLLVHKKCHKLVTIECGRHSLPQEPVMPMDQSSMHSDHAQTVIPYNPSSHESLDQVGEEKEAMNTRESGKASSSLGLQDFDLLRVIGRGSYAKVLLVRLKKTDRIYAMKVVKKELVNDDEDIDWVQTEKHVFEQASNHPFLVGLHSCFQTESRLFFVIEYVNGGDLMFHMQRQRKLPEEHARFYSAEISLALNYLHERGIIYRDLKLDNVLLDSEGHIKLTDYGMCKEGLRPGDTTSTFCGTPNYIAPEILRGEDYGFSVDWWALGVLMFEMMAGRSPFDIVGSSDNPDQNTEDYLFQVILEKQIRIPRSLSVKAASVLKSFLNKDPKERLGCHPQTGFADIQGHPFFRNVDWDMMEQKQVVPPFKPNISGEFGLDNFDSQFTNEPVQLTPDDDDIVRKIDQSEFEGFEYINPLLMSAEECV
From the text: as §1

[5] = target: 363 human kinases (including Aurora A/B/C) (Homo sapiens, UniProt P49760); conditions: CLK2, [ATP] 50 µM; for remaining activity at 0.1 µM: 100 nM; for remaining activity at 0.1 µM / remaining activity at 0.5 µM: read-out: % Enzyme Activity (relative to DMSO controls)
363 human kinases (including Aurora A/B/C) (Homo sapiens, UniProt P49760), sequence (P49760 whole entry): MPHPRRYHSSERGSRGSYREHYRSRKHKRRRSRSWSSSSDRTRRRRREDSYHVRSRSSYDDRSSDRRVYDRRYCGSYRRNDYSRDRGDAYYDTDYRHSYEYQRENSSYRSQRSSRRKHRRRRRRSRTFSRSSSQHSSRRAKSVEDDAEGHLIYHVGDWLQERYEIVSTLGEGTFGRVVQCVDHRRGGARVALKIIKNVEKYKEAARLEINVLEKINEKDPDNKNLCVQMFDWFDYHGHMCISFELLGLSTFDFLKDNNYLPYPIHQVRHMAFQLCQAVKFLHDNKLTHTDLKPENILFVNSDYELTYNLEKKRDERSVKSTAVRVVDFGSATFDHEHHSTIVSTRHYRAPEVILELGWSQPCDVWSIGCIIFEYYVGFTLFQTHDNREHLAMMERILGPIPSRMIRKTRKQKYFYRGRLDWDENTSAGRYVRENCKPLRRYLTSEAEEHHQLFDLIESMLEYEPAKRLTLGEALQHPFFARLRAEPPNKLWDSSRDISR
From the text: as §1

[6] = target: 363 human kinases (including Aurora A/B/C) (Homo sapiens, UniProt P50750); conditions: [ATP] 10 µM; for remaining activity at 0.1 µM: 100 nM; for remaining activity at 0.1 µM / remaining activity at 0.5 µM: read-out: % Enzyme Activity (relative to DMSO controls); for % Enzyme Activity (relative to DMSO controls) / remaining activity at 0.5 µM: 500 nM
363 human kinases (including Aurora A/B/C) (Homo sapiens, UniProt P50750), sequence (P50750 whole entry): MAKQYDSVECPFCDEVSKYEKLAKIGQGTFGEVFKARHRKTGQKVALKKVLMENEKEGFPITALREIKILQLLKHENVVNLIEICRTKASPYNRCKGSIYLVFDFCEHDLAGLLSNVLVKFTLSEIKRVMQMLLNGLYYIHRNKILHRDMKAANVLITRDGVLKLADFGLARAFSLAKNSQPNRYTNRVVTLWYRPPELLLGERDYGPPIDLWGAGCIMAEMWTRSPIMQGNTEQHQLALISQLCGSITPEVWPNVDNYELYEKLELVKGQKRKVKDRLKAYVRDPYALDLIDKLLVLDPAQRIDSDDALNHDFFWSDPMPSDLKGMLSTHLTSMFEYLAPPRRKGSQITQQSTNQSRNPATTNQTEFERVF
From the text: as §1

[7] = target: 363 human kinases (including Aurora A/B/C) (Homo sapiens, UniProt O75914); conditions: PAK3; for remaining activity at 0.1 µM: 100 nM; for remaining activity at 0.1 µM / remaining activity at 0.5 µM: read-out: % Enzyme Activity (relative to DMSO controls)
363 human kinases (including Aurora A/B/C) (Homo sapiens, UniProt O75914), sequence (O75914 whole entry): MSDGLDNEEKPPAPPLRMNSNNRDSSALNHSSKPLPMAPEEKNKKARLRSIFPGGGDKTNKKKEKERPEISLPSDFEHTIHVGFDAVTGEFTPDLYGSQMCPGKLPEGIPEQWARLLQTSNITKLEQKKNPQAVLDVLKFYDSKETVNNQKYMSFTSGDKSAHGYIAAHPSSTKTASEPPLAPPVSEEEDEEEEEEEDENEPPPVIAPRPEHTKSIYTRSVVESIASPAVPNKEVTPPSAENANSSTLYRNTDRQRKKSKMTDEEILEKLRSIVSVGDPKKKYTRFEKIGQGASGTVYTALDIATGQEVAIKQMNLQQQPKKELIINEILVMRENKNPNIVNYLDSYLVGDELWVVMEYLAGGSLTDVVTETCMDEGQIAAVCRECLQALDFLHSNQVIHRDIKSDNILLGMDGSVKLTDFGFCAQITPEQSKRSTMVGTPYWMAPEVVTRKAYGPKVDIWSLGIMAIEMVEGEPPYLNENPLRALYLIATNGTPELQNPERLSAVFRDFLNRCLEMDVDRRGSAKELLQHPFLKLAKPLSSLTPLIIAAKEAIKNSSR
From the text: as §1

[8] = target: 363 human kinases (including Aurora A/B/C) (Homo sapiens, UniProt Q00536); conditions: CDK16/cyclin Y (PCTAIRE), [ATP] 15 µM; for remaining activity at 0.1 µM: 100 nM; for remaining activity at 0.1 µM / remaining activity at 0.5 µM: read-out: % Enzyme Activity (relative to DMSO controls)
363 human kinases (including Aurora A/B/C) (Homo sapiens, UniProt Q00536), sequence (Q00536 whole entry): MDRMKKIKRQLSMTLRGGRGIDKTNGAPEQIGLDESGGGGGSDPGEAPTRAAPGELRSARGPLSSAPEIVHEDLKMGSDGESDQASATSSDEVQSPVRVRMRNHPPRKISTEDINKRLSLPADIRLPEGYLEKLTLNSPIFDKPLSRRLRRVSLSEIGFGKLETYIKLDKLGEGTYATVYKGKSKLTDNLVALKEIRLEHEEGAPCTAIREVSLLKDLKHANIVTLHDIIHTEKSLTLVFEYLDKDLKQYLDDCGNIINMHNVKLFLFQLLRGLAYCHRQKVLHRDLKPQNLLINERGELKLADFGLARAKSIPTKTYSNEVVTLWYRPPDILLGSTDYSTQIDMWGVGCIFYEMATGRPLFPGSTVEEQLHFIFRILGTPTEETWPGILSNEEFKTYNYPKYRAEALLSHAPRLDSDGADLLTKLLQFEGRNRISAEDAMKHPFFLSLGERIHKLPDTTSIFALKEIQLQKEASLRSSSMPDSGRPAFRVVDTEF
From the text: as §1

[9] = target: 363 human kinases (including Aurora A/B/C) (Homo sapiens, UniProt P53779); conditions: JNK3; for remaining activity at 0.1 µM: 100 nM; for remaining activity at 0.1 µM / remaining activity at 0.5 µM: read-out: % Enzyme Activity (relative to DMSO controls)
363 human kinases (including Aurora A/B/C) (Homo sapiens, UniProt P53779), sequence (P53779 whole entry): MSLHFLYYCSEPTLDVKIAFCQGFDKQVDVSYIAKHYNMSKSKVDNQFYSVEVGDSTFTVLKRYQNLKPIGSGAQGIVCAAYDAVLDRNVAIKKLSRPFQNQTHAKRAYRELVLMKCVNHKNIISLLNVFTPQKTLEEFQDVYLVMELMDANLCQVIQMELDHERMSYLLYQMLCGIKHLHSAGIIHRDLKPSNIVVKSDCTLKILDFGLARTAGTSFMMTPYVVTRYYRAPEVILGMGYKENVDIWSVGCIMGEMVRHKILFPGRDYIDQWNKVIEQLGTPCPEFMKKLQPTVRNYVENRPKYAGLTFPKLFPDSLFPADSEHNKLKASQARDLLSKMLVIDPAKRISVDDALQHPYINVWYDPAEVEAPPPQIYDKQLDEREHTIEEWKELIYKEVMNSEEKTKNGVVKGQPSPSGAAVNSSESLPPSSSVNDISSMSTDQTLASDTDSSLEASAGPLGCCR
From the text: as §1

[10] = target: T2, 363 human kinases (including Aurora A/B/C) (Homo sapiens, UniProt Q86YV6); conditions: MYLK4; for remaining activity at 0.1 µM: 100 nM; for remaining activity at 0.1 µM / remaining activity at 0.5 µM: read-out: % Enzyme Activity (relative to DMSO controls)
T2 sequence (Q86YV6 1-388): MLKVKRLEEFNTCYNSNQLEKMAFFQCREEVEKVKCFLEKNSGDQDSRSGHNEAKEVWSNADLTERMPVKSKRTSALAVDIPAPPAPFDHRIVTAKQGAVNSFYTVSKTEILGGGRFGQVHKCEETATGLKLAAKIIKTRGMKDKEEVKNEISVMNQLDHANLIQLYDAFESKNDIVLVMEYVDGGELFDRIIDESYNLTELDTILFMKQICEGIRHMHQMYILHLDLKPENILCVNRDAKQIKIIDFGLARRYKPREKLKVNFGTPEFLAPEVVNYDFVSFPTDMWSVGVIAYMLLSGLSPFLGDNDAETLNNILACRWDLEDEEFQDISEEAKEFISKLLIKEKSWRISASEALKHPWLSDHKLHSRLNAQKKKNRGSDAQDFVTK
From the text: as §1

[11] = target: 363 human kinases (including Aurora A/B/C) (Homo sapiens, UniProt Q9HCP0); conditions: CK1g1, [ATP] 20 µM; for remaining activity at 0.1 µM: 100 nM; for remaining activity at 0.1 µM / remaining activity at 0.5 µM: read-out: % Enzyme Activity (relative to DMSO controls)
363 human kinases (including Aurora A/B/C) (Homo sapiens, UniProt Q9HCP0), sequence (Q9HCP0 whole entry): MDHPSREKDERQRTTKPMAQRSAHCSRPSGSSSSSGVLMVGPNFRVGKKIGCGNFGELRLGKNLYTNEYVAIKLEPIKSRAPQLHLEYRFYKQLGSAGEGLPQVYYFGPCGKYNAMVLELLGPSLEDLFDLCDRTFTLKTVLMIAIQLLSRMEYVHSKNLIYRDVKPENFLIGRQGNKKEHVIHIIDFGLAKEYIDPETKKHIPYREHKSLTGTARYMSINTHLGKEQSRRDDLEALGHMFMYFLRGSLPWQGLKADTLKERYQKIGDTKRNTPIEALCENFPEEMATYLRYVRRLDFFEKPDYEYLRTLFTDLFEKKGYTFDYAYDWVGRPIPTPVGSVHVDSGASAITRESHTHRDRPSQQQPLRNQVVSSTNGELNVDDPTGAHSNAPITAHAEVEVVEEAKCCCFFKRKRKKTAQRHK
From the text: as §1

SMILES	remaining activity at 0.1 µM [1] [%]	remaining activity at 0.1 µM [2] [%]	remaining activity at 0.1 µM [3] [%]	remaining activity at 0.1 µM [4] [%]	remaining activity at 0.1 µM [5] [%]	remaining activity at 0.1 µM ([6]; CDK9/cyclin K) [%]	remaining activity at 0.1 µM ([6]; CDK9/cyclin T1) [%]	remaining activity at 0.1 µM [7] [%]	remaining activity at 0.1 µM [8] [%]	remaining activity at 0.1 µM [9] [%]	remaining activity at 0.1 µM [10] [%]	remaining activity at 0.1 µM [11] [%]	remaining activity at 0.5 µM ([1]; 500 nM) [%]	remaining activity at 0.5 µM ([2]; 500 nM) [%]	remaining activity at 0.5 µM ([3]; 500 nM) [%]	remaining activity at 0.5 µM ([4]; 500 nM) [%]	remaining activity at 0.5 µM ([5]; 500 nM) [%]	remaining activity at 0.5 µM ([6]; CDK9/cyclin K) [%]	remaining activity at 0.5 µM ([6]; CDK9/cyclin T1) [%]	remaining activity at 0.5 µM ([7]; 500 nM) [%]	also measured
CCn1cc(-c2ccnc3[nH]c(-c4cccc(CN(C)C)c4)cc23)c(-c2ccc(NC(=O)N(C)C)cc2)n1 [GSK1070916]	103	83.7	95.6	99.1	93.6	102	91.5	92.5	107	94	94.3	104	–	–	–	–	–	–	–	–	–
O=C(c1cccc(Cl)c1F)N1CCN(Cc2cccc(Nc3nccs3)n2)CC1 [MK-8745]	–	–	–	–	–	–	–	–	–	–	–	–	96.1	78.6	92.9	98	99	109	198	94	% Enzyme Activity (relative to DMSO controls) ([1]; 500 nM): 96.01%; % Enzyme Activity (relative to DMSO controls) ([2]; 500 nM): 77.67%; % Enzyme Activity (relative to DMSO controls) ([3]; 500 nM): 92.28%; % Enzyme Activity (relative to DMSO controls) ([4]; 500 nM): 95.15%; % Enzyme Activity (relative to DMSO controls) ([5]; 500 nM): 95.24%; % Enzyme Activity (relative to DMSO controls) ([6]; CDK9/cyclin K): 108.88%; % Enzyme Activity (relative to DMSO controls) ([6]; CDK9/cyclin T1): 190.89%; % Enzyme Activity (relative to DMSO controls) ([7]; 500 nM): 91.67%; % Enzyme Activity (relative to DMSO controls) ([8]; 500 nM): 110.95%; remaining activity at 0.5 µM ([8]; 500 nM): 111%; % Enzyme Activity (relative to DMSO controls) ([9]; 500 nM): 78.39%; remaining activity at 0.5 µM ([9]; 500 nM): 78.8%; % Enzyme Activity (relative to DMSO controls) ([10]; 500 nM): 92.44%; remaining activity at 0.5 µM ([10]; 500 nM): 93%; % Enzyme Activity (relative to DMSO controls) ([11]; 500 nM): 98.16%; remaining activity at 0.5 µM ([11]; 500 nM): 98.7%
O=C(O)[C@]1(Cc2cccc(Nc3nccs3)n2)CC[C@@H](Oc2cccc(Cl)c2F)CC1 [MK-5108]	103	88.3	102	94.3	72.9	94	124	92.3	83.6	96.1	93	93.2	98.8	80.5	100	102	25.4	106	115	88.8	remaining activity at 0.5 µM ([8]; 500 nM): 98%; remaining activity at 0.5 µM ([9]; 500 nM): 98.7%; remaining activity at 0.5 µM ([10]; 500 nM): 90.4%; remaining activity at 0.5 µM ([11]; 500 nM): 101%
